# Measurements reported in patent US20220324868A1, “Pyrazolone-Fused Pyrimidine Compound, and Preparation Method and Use Therefor” (SHANGHAI PHARMACEUTICALS HOLDING CO., LTD., priority 2019, published 2022).
# Like-named read-outs stand apart in the source and are kept apart here.
# Tests used:
# [1] = biological target: T1, WEE1 kinase (Homo sapiens, UniProt P30291); experiment: Inhibitory effect on WEE1 kinase in vitro (ELISA); type: biochemical; conditions: ATP concentration of Km (12 μM), WEE1 0.15 ng/μL, 60 min
# T1 construct: purchased CarnaBiosciences, Inc. 05-177
# T1 sequence (P30291 whole entry): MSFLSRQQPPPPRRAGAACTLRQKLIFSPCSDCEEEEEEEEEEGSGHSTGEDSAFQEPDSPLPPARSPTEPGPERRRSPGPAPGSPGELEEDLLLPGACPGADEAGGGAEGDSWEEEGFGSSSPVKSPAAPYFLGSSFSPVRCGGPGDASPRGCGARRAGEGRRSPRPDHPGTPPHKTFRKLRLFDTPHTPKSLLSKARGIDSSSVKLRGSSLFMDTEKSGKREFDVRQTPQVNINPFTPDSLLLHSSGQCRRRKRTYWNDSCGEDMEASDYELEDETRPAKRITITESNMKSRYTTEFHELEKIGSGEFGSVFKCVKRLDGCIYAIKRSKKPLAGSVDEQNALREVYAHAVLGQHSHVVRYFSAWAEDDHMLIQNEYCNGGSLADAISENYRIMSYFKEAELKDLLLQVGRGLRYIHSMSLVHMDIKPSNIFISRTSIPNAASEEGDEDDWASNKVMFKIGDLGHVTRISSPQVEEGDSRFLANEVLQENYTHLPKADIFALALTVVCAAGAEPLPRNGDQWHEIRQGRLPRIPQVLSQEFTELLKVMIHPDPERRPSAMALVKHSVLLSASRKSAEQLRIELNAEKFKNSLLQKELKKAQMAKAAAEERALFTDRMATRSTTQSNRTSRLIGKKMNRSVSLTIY
# Protocol: I. Inhibitory Effect of Compound on WEE1 Kinase In Vitro
# The tested compounds were screened on WEE1 kinase with ATP concentration of Km by ELISA. Three compounds were screened on WEE1 kinase to evaluate the kinase inhibitory activity of the tested compounds. In the detection process, the initial concentration of the tested compounds was all selected as 100 nM, and each compound was selected with 6 gradient dilution concentrations, the gradient dilution ratio was 4-fold, and two replicate wells were detected for each concentration, MK1775 was used as the standard control.
# 1. Coating substrate: 1) An appropriate volume of substrate storage solution protein tyrosinase (PTK) substrate (poly-Glu-Tyr) was taken, diluted 10 times with PBS, and the concentration was diluted from […]. The mixture was added to a high adsorption 96-well plate at 125 μL per well. The plate was placed in an incubator at 37° C. for overnight coating. 2) After 24 hours, the 96-well plate was taken out, the liquid in the 96-well plate was poured out, cleaned with washing buffer for 3 times, and the incubator at 37 was inverted and dried for 2 hours.
# 3. Enzyme reaction stage: 1) WEE1 kinase and ATP were prepared into 2× enzyme solution and 4× ATP solution respectively with 1× reaction buffer.
# 4. Reaction termination stage: 1) the reaction mixture in the plate was poured out, 200 μL of washing buffer was added to each well, and washed for 5 times; the primary antibody P-Tyr (PY99) (dilution ratio 1:2000) was added, 100 μL per well, at room temperature for 30 min. 2) The primary antibody in the plate was poured out, 200 μL of washing buffer was added to each well, and washed for 5 times; the second antibody Anti-mouse IgG HRP-linked Antibody (dilution ratio 1:2000) was added, 100 μL per well, at room temperature for 30 min. 3) The secondary antibody in the plate was poured out, washed 5 times with washing buffer, and TMB was added, 100 μL per well, and colored for 10-30 min, depending on the color depth. The reaction was terminated with 1N sulfuric acid before reading.
# 5. […] 2) Graphpad Prism 5.0 was used to fit Log(inhibitor) vs. response-Variable slope (four parameters) curves to the data, and the corresponding IC50 (half maximal inhibitory concentration) was calculated.
# [2] = system: COLO 205 cells; experiment: Proliferation inhibition of COLO 205 cells (Luminescence ATP Detection, ATPlite); type: cell-based; conditions: Homo sapiens; p53-deficient cell line COLO 205, 72 hours
# Protocol: (§1) I. Proliferation Inhibitory of the Compound on COLO 205 Cells and Hela Cells.
# (§2) COLO205 cells, purchased from SIBS, generation P11; Hela purchased from ATCC, generation P13.
# (§3) Drug treatment of cells: on the third day of the experiment, microplates were removed from the incubator, 9× compound were added to each well in the microplate, and 5 μL was added to each well, wherein there were 2 replicate wells for each drug concentration and 10 drug concentrations for each compound. According to different cell lines, the initial concentration of each compound was different, after the completion, the microplate was cultured at 37° C. and 5% CO2 for 72 hours.
# (§4) Data collection: The microplates were removed from the incubator and equilibrated at room temperature for 30 minutes. 100 μL of ATPlite reaction mixture after room temperature equilibrium was added to each well, the solution was shaken at room temperature of 1300 rpm for 2 minutes, and then the microplate was placed in a HERAEUS Multifuge X1R centrifuge at 2000 rpm for 1 minute; after equilibrium at room temperature for 10 minutes, the fluorescence signal value was measured on EnVision™.
# (§5) Calculation of cell viability: Cell viability(%)=signal value of administration/signal value of controlx 100%. Graphpad Prism 5.0 was used to fit Log(inhibitor) vs. response-Variable slope (four parameters) curves to the fluorescence signal values at each concentration, and the corresponding IC50 (half maximal inhibitory concentration) was calculated.
# [3] = system: Hela cells; experiment: Proliferation inhibition of Hela cells (Luminescence ATP Detection, ATPlite); type: cell-based; conditions: Homo sapiens, 72 hours
# Protocol: as §1, §2
# Cell culture and inoculation: on the first day of the experiment, cells in normal culture were taken in their exponential growth state, digested and dispersed, the cell density was adjusted to 9×10^3 cells/mL, and 40 μL per well were inoculated into 384-well cell culture plates; after inoculation was completed, the microplates were placed at 37° C. and 5% CO2 for incubation.
# as §3, with “second” for “third”
# as §4, with “the” for “The”, “40” for “100”
# as §5
Compound,IC50 ([1]; read-out: WEE1 IC50),IC50 [2],IC50 [3],"IC50 ([1]; WEE1 IC50, nM)"
"C=CCn1c(=O)c2cnc(Nc3ccc(N4CCC5(CC4)CN(C)C5)cc3)nc2n1-c1ccc2c(n1)C(C)(O)CC2 (stereo not drawn) [Compound I-13, 2-allyl-1-(7-hydroxy-7-methyl-6,7-dihydro-5H-cyclopenta[b]pyridin-2-yl)-6-((4-(2-methyl-2,7-diazaspiro[3.5]nonan-7-yl)phenyl)amino)-1,2-dihydro-3H-pyrazolo[3,4-d]pyrimidin-3-one]",3.41 nM,886 nM,190 nM,–
"C=CCn1c(=O)c2cnc(Nc3ccc(N4CCC5(CCN(C)CC5)CC4)cc3)nc2n1-c1ccc2c(n1)C(O)CC2 (stereo not drawn) [Compound I-9, 2-allyl-1-(7-hydroxy-6,7-dihydro-5H-cyclopenta[b]pyridin-2-yl)-6-((4-(9-methyl-3,9-diazaspiro[5.5]undecan-3-yl)phenyl)amino)-1,2-dihydro-3H-pyrazolo[3,4-d]pyrimidin-3-one]",2.87 nM,614 nM,191 nM,–
"C=CCn1c(=O)c2cnc(Nc3ccc(N4CC5CN(C)CC5C4)cc3)nc2n1-c1ccc2c(n1)C(C)(O)CC2 (stereo not drawn) [Compound I-35, 2-allyl-1-(7-hydroxy-7-methyl-6,7-dihydro-5H-cyclopenta[b]pyridin-2-yl)-6-((4-(-5-methylhexahydropyrrolo[3,4-c]pyrrol-2(1H)-yl)phenyl)amino)-1,2-dihydro-3H-pyrazolo[3,4-d]pyrimidin-3-one]",3.15 nM,473 nM,147 nM,–
"C=CCn1c(=O)c2cnc(Nc3ccc(N4C[C@H]5CN(C)C[C@H]5C4)cc3)nc2n1-c1ccc2c(n1)C(C)(O)CCC2 (stereo partly drawn) [Compound I-32, 2-allyl-1-(8-hydroxy-8-methyl-5,6,7,8-tetrahydroquinolin-2-yl)-6-((4-((3aR,6aS)-5-methylhexahydropyrrolo[3,4-c]pyrrole-2(1H)-yl)phenyl)amino)-1,2-dihydro-3H-pyrazolo[3,4-d]pyrimidin-3-one]",4.79 nM,541 nM,148 nM,–
C=CCn1c(=O)c2cnc(Nc3ccc(N4CCN(C)CC4)cc3)nc2n1-c1ccc2c(n1)C(O)CCC2 (stereo not drawn) [Compound I-23],2.87 nM,1670 nM,534 nM,–
"C=CCn1c(=O)c2cnc(Nc3ccc(N4CC5(CCN(C)CC5)C4)cc3)nc2n1-c1ccc2c(n1)C(C)(O)CC2 (stereo not drawn) [Compound I-14, 2-allyl-1-(7-hydroxy-7-methyl-6,7-dihydro-5H-cyclopenta[b]pyridin-2-yl)-6-((4-(7-methyl-2,7-diazaspiro[3.5]nonan-2-yl)phenyl)amino)-1,2-dihydro-3H-pyrazolo[3,4-d]pyrimidin-3-one]",2.81 nM,363 nM,192 nM,–
C=CCn1c(=O)c2cnc(Nc3ccc(N4C[C@@H]5CN(C(C)C6CC6)C[C@@H]5C4)cc3)nc2n1-c1ccc2c(n1)C(O)CC2 (stereo partly drawn) [Compound I-41],10.6 nM,786 nM,224 nM,–
C=CCn1c(=O)c2cnc(Nc3ccc(N4C[C@@H]5CN(C6CCC6)C[C@@H]5C4)cc3)nc2n1-c1ccc2c(n1)C(O)CC2 (stereo partly drawn) [Compound I-38],2.43 nM,451 nM,134 nM,–
C=CCn1c(=O)c2cnc(Nc3ccc(N4CC5(CCN(CC)CC5)C4)cc3)nc2n1-c1ccc2c(n1)C(O)CC2 (stereo not drawn) [Compound I-11],11.3 nM,1190 nM,317 nM,–
C=CCn1c(=O)c2cnc(Nc3ccc(N4CCN(CC5CC5)CC4)cc3)nc2n1-c1ccc2c(n1)C(O)CC2 (stereo not drawn) [Compound I-4],4.43 nM,1970 nM,395 nM,–
"C=CCn1c(=O)c2cnc(Nc3ccc(N4C[C@H]5CNC[C@H]5C4)cc3)nc2n1-c1ccc2c(n1)C(C)(O)CCC2 (stereo partly drawn) [Compound I-33, 2-allyl-6-((4-((3aR, 6aS)hexahydropyrrolo[3,4-c]pyrrolo-2(1H)-yl)phenyl)amino)-1-(8-hydroxy-8-methyl-5,6,7,8-tetrahydroquinolin-2-yl)-1,2-dihydro-3H-pyrazolo[3,4-d]pyrimidin-3-one]",3.48 nM,891 nM,200 nM,–
"C=CCn1c(=O)c2cnc(Nc3ccc(N4CCN(C)CC4)cc3)nc2n1-c1ccc2c(n1)C(C)(O)CC2 (stereo not drawn) [Compound I-16, 2-allyl-1-(7-hydroxy-7-methyl-6,7-dihydro-5H-cyclopenta[b]pyridin-2-yl)-6-((4-(4-methylpiperazin-1-yl)phenyl)amino)-1,2-dihydro-3H-pyrazolo[3,4-d]pyrimidin-3-one]",–,1620 nM,316 nM,3.99 nM
C=CCn1c(=O)c2cnc(Nc3ccc(C4CCC(N(C)C)CC4)cc3)nc2n1-c1ccc2c(n1)C(C)(O)CC2 (stereo not drawn) [Compound I-34],4.79 nM,1580 nM,214 nM,–
C=CCn1c(=O)c2cnc(Nc3ccc(N4CCN(CC)CC4)cc3)nc2n1-c1ccc2c(n1)C(O)CC2 (stereo not drawn) [Compound I-2],2.55 nM,1740 nM,345 nM,–
